From patent publication US20190094204A1, “MEMBRANE TRANSPORTER ASSAY AND METHODS OF USE” (Howard Hughes Medical Institute, priority 2017, published 2019)
Entries after “also recorded” stand apart in the source; their conditions may differ.

Assays:
EAAT2 [1] = biological target: T1, EAAT2 (Homo sapiens, UniProt P43004); conditions: EAAT2 inhibitor; Tsukada et al., 2005 Neuropharmacology 48:479-491; cited from earlier work
T1 construct: expressed in transfected cells; host or cells: HEK-293 (ATCC #CRL-1573)

EAAT2 [2] = biological target: T1, EAAT2; assay: OSTA of EAAT2-mediated glutamate transport (cytosolic iGluSnFR); assay type: cell-based; conditions: for effect on EAAT2 activity (negative control): 10 mM sodium salicylate, same Na+/K+/glutamate stimulus
SLC26a3 = SLC26a3 (Homo sapiens, UniProt P40879); conditions: washout after 10 mM salicylate; HEK-293 cells expressing SLC26a3
Chain of SLC26a3 (P40879 whole entry, species assumed): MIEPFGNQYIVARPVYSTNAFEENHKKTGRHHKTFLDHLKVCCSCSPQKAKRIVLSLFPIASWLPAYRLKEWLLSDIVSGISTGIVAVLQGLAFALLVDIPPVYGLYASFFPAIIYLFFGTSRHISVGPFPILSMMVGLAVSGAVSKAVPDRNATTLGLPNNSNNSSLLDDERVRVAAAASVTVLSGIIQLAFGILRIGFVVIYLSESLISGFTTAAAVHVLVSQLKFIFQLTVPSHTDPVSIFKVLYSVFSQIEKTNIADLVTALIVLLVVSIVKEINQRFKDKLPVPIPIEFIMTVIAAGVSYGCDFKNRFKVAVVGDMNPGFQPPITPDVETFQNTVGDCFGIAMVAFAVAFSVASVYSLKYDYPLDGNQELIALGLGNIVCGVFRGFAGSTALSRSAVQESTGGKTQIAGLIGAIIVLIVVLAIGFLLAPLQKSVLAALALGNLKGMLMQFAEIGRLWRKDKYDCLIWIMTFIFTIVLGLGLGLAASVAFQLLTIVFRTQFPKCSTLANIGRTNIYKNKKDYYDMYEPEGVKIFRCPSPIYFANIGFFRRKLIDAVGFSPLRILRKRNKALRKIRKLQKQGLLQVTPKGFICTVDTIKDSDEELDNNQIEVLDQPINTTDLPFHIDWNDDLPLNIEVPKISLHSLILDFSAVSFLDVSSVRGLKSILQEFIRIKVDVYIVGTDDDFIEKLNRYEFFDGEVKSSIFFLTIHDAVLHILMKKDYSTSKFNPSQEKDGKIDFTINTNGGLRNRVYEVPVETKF

T1 sequence (P43004 whole entry, species assumed): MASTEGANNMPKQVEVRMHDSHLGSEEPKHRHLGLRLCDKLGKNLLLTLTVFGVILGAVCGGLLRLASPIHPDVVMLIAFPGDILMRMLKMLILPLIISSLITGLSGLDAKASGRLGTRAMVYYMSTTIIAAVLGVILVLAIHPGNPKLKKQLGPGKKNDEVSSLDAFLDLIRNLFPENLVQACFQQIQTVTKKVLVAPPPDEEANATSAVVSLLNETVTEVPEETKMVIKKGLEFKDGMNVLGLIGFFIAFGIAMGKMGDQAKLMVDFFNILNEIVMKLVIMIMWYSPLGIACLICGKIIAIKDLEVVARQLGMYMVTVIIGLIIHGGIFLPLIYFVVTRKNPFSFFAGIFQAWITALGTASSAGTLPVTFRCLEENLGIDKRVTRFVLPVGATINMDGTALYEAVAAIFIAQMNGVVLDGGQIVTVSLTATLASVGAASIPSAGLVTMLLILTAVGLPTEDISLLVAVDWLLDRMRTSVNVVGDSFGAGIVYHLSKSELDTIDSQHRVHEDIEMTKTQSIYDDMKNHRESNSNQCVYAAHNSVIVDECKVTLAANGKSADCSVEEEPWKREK

N[C@H](C(=O)O)[C@H](OCc1cccc(NC(=O)c2ccc(C(F)(F)F)cc2)c1)C(=O)O [TFB-TBOA]
IC50 (EAAT2 [1]): ~17 nM
onset and washout of EAAT2 inhibition (EAAT2 [2]; 2 μM TFB-TBOA): rapid onset and slower washout
effect on EAAT2 glutamate oscillations (EAAT2 [2]; 2 μM TFB-TBOA, combined Na+/K+/glutamate stimulus (0-10 mM glutamate), HEK-293 cells): complete abrogation of oscillating signal; also recorded: completely abolished the oscillations

O=C([O-])c1ccccc1O.[Na+] [salicylate, sodium salicylate]
oscillating response after washout (SLC26a3): return to the initial oscillating response
effect on EAAT2 activity (negative control) (EAAT2 [2]; HEK-293 cells): relative indifference
effect on EAAT2 activity (negative control) (EAAT2 [2]; HEK-293 cells, listed as sodium salicylate): no effect on EAAT2 activity
